Results from paper PMC10056348, “Photocaged Histone Deacetylase Inhibitors as Prodrugs in Targeted Cancer Therapy” (Pharmaceuticals, 2023).

How the values were obtained:
[1] = test system: rodent cells; set-up: method as in PMID 26603496; settings: cited from earlier work
[2] = set-up: method as in PMID 26603496; settings: cited from earlier work
[3] = test system: human ovarian cancer cell line A2780; set-up: method as in PMID 31762274; settings: cited from earlier work
[4] = test system: cisplatin-resistant Cal27CisR cells; set-up: method as in PMID 31762274; settings: cited from earlier work
[5] = test system: human squamous carcinoma cell line Cal27; set-up: method as in PMID 31762274; settings: cited from earlier work
[6] = Photo-uncaging efficiency (HPLC after irradiation at 365 nm); format: physicochemical; settings: 10 min
Method: Photolysis (photo-uncaging) of photocaged HDACi prodrugs was performed at room temperature using a UVP CL-1000 Crosslinker (Analytik Jena GmbH, Jena, Germany) equipped with five UV-A tubes (F8T5/BL368; λmax = 365 nm; Analytik Jena GmbH, Jena, Germany). Hereafter, this entire experimental set-up will be referred to as the “UV reactor”.
For the photo-uncaging efficiency testing, 10 µL of a 1.0 mM DMSO solution of the respective compound was irradiated for 10 min using the UV reactor described above. Subsequently, 90 µL acetonitrile was added, and the samples were analyzed via HPLC. The amount of photo-cleaved HDACi was determined by comparison with a five-point calibration curve of the respective parent inhibitor, using HPLC/UV detection at an appropriate wavelength (area under the curve; area mAu*min).
2. Photouncaging Experiments
Photolysis (photouncaging) of photocaged HDACi prodrugs was performed at room temperature using an UVP CL-1000 Crosslinker (Analytik Jena GmbH, Jena, Germany) equipped with five UV-A tubes (F8T5/BL368; λmax = 365 nm; Analytik Jena GmbH, Jena, Germany). Hereafter, this entire experimental set-up will be referred to as the "UV-reactor".
For the deprotection experiments 10 µL of a 1.0 mM DMSO-solution of the respective compound were irradiated for 10 min using the UV-reactor described above. Subsequently, 90 µL acetonitrile were added and the samples were analyzed via HPLC. The amount of photo-cleaved HDACi was determined by comparison with a five-point calibration curve of the respective parent inhibitor using HPLC/UV detection at an appropriate wavelength (area under the curve; area mAu*min).
Figure S5. Calibration curve of DDK-137 (I).

For `Cc1[nH]c2ccccc2c1CCNCc1ccc(/C=C/C(=O)NO)cc1` [panobinostat], the “chromosomal aberrations in rodent cells” value [1] is listed as “provoke chromosomal aberrations” and the “mutagenic activity in the Ames test” value [2] is listed as “mutagenic activity”.
For `CN(C)c1ccc(C(=O)N(CC(=O)NCc2ccccc2)Cc2ccc(C(=O)Nc3ccccc3N)cc2)cc1` [II, N-{4-[(2-aminophenyl)-carbamoyl]-benzyl}-N-[2-(benzylamino)-2-oxoethyl]-4-(dimethylamino)-benzamide], the “antiproliferative effects in A2780” value [3] is listed as “promising antiproliferative effects”, the “reversal of cisplatin resistance” value [4] is listed as “capable of reversing cisplatin resistance” and the “antiproliferative effects in Cal27” value [5] is listed as “promising antiproliferative effects”.
For `O=C(CCCCCCC(=O)Nc1ccccc1)NO` [Vorinostat], the “chromosomal aberrations in rodent cells” value [1] is listed as “provoke chromosomal aberrations” and the “mutagenic activity in the Ames test” value [2] is listed as “mutagenic activity”.
For `COc1cc(COC(=O)Nc2ccccc2NC(=O)c2ccc(CN(CC(=O)NCc3ccccc3)C(=O)c3ccc(N(C)C)cc3)cc2)c([N+](=O)[O-])cc1OC` [pc-II, 4,5-Dimethoxy-2-nitrobenzyl-{2-[4-({N-[2-(benzylamino)-2-oxoethyl]-4-(dimethylamino)benzamido}methyl)benzamido]phenyl}carbamate], the “behaviour under treatment with light” value ([6]; DMSO) was “decomposed”, the “yield of photo-released parent inhibitor” value ([6]; DMSO, HPLC with calibration curve) was “did not release the parent HDACi II in significant quantities” and the “concentration of photo-released parent inhibitor after irradiation” value ([6]; initial concentration 100 µM) was “not detected”. It also gave a melting point of 159 to 161 °C.
For `O=C(/C=C/c1cccc(S(=O)(=O)Nc2ccccc2)c1)NO` [belinostat], the “chromosomal aberrations in rodent cells” value [1] is listed as “provoke chromosomal aberrations” and the “mutagenic activity in the Ames test” value [2] is listed as “mutagenic activity”.
